Laboratory results from patent US20070208088A1, “PQS: A NEW HYDROTROPE FOR SOLUBILIZING LIPOPHILIC COMPOUNDS IN WATER” (ZYMES, LLC, priority 2006, published 2007).

Test: Micelle formation and micelle particle size in aqueous solution
Assay type: physicochemical
Settings: for particle size of the micelles: micelles formed in aqueous solution
From the text: In one example, the compounds of the invention form micelles when added to an aqueous solution. The particle sizes of these micelles can be determined using art recognized methods, such as light scattering techniques. In one embodiment, the particle size is between about 300 nm and about 1 nm, preferably between about 200 nm and about 1 nm, more preferably between about 100 nm and about 1 nm. Smaller particle sizes are generally preferred.
Smaller micelle size is generally preferred.

Substance	micelle formation in aqueous solution	particle size of the micelles
polyoxyethanyl-ubiquinol-sebacate [PQS-600]	forms micelles	about 120 nm
polyoxyethanyl-ubiquinol-sebacate [PQS-1000]	forms micelles	about 80 nm
